Reference: article PMC10298284, “Synthesis and hLDH Inhibitory Activity of Analogues to Natural Products with 2,8-Dioxabicyclo[3.3.1]nonane Scaffold” (International Journal of Molecular Sciences, 2023)
Where “and” joins values, the source holds several entries; their conditions need not be identical. Equal values may be shown once. Read-outs that look alike come from different tables or passages of the source.

Columns and labels:
recombinant human LDHA = biological target: T1, recombinant human LDHA (Homo sapiens, UniProt P00338); test: hLDHA enzymatic activity assay (kinetic spectrofluorimetric, β-NADH fluorescence decrease); format: biochemical; settings: for IC50: mean ± SD of n = 3 replicates; for Selectivity Rate (IC50 hLDHB/hLDHA): ratio IC50 hLDHB / IC50 hLDHA
T1 construct: purchased Abcam
Protocol: (§1) Briefly, the decrease in the coenzyme β-NADH fluorescence (λemission = 460 nm) was measured for 10 min, at different concentration of inhibitors, and its slope was compared with the one obtained when there were not inhibitors added (100% enzymatic activity).
The enzymatic assay was conducted on 96-well microplates and the decrease in the β-NADH fluorescence (λexcitation = 340 nm; λemission = 460 nm) was detected in a TECAN Infinite 200 Pro M Plex fluorescent plate reader (Tecan Instrument, Inc.) at 28 °C. The activity was determined according to our previously described protocol. The final volume in each well was set to 200 µL using 100 mM potassium phosphate buffer, 0.041 units/mL LDHA, 155 µM β-NADH, 1 mM pyruvate (saturated conditions), and DMSO solutions (5%, v/v) of pure compounds at concentrations in the range of 1–600 µM. The addition of pyruvate allowed the beginning of the reaction and fluorescence was registered every 60 s during 10 min. A lineal time interval was selected to calculate the slope at every single concentration. […] The slope obtained at each concentration was compared to the one obtained for the 100% enzymatic activity control to determine the corresponding enzymatic activity. A nonlinear regression analysis in GraphPad Prism version 9.00 for Windows (GraphPad Software, La Jolla, CA, USA) was used for dose response curve, fitting of logarithm of inhibitor concentration vs. normalized enzymatic activity, to calculate IC50 values (Supplementary Material section). All measurements were made in triplicate and data were expressed as the mean ± SD.

recombinant human LDHB = biological target: T2, recombinant human LDHB (Homo sapiens, UniProt P07195); test: hLDHB enzymatic activity assay (same fluorimetric protocol); format: biochemical; settings: mean ± SD of n = 3 replicates
T2 construct: purchased Abcam
Protocol: as §1
The ability of the synthesized compounds to inhibit the hLDHB enzyme was measured using recombinant human LDHB (95%, specific activity >300 units/mg and concentration of 1.0 mg/mL, Abcam, Cambridge, UK) following the same fluorimetric protocol described in Section 3.4.

[1] = 1 mM pyruvate, 155 µM β-NADH, pH 7.3, 28 °C, read-out: hLDHA IC50
[2] = supplementary dose response curves, µM only on the axis label, read-out: IC50 (hLDHA inhibition curve)

T2 sequence (P07195 whole entry): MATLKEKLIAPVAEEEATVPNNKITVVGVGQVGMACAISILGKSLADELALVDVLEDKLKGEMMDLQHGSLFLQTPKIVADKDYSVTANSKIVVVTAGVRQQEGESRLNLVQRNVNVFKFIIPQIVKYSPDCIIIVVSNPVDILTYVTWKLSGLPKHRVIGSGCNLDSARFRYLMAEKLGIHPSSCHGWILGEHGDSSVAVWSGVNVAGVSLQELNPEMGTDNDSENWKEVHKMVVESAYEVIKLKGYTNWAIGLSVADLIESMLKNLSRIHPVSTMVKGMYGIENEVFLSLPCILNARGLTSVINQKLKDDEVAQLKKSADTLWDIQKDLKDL

| SMILES | IC50 (recombinant human LDHA; [1]) | Selectivity Rate (IC50 hLDHB/hLDHA) (recombinant human LDHA) | IC50 (recombinant human LDHA; [2]) | IC50 (recombinant human LDHB; read-out: hLDHB IC50) | Selectivity Rate (IC50 hLDHB/hLDHA) (recombinant human LDHA; listed as 70b) | IC50 (recombinant human LDHB; supplementary dose response curves, µM only on the axis label, read-out: IC50 (hLDHB inhibition curve)) |
| --- | --- | --- | --- | --- | --- | --- |
| COc1ccc(C23CC(C4=C(O2)C(=O)c2ccccc2C4=O)c2ccccc2O3)cc1OC (racemic) [(±)-57] | 42.2 ± 2.4 µM | >7.1 | 42.2 ± 2.4 µM | > 300 µM | – | – |
| COc1ccc(C23CC(c4ccccc4O2)c2c(c4ccccc4oc2=O)O3)cc1OC (racemic) [(±)-48] | 49.6 ± 1.7 µM | >6.0 | 49.6 ± 1.7 µM | > 300 µM | – | – |
| COc1ccc([C@]23C[C@H](C4=C(C[C@H](c5ccccc5)OC4=O)O2)c2ccccc2O3)cc1OC (racemic) [(±)-62b, 2-(3′,4′-Dimethoxyphenyl)-chromane-(4→3″, 2→O-4″)-4″-hydroxy-6″-phenyl-5″,6″-dihydro-2H-pyran-2″-one] | 39.4 ± 1.2 µM | >7.6 | 39.4 ± 1.2 µM | > 300 µM | – | – |
| COc1ccc(C23CC(C4=C(CC(c5ccc(Cl)cc5)OC4=O)O2)c2cc([N+](=O)[O-])ccc2O3)cc1OC (racemic) [(±)-66b, 2-(3′,4′-Dimethoxyphenyl)-6-nitrochromane-(4→3″, 2→O-4″)-6″-(4‴-chlorophenyl)-4″-hydroxy-5″,6″-dihydro-2H-pyran-2″-one] | < 10 µM and 6 µM | 3.4 | 6 ± 0.1 µM | 20.4 ± 0.7 µM | – | – |
| COc1ccc(C2CC3=C(C(=O)O2)C2CC(c4ccc(OC)c(OC)c4)(O3)Oc3ccc(Cl)cc32)cc1 (racemic) [(±)-70b, 2-(3′.4′-Dimethoxyphenyl)-6-chlorochromane-(4→3″, 2→O-4″)-4″-hydroxy-6″-(4‴-methoxyphenyl)-5″,6″-dihydro-2H-pyran-2″-one] | 20.2 ± 0.7 µM | 14.5 | 20.2 ± 0.7 µM | 292 ± 4.1 µM | > 10 | – |
| COc1ccc(C2CC3=C(C(=O)O2)C2CC(c4ccc(OC)c(OC)c4)(O3)Oc3ccc([N+](=O)[O-])cc32)cc1 (racemic) [(±)-67b, 2-(3′,4′-Dimethoxyphenyl)-6-nitrochromane-(4→3″, 2→O-4″)-4″-hydroxy-6″-(4‴-methoxyphenyl)-5″,6″-dihydro-2H-pyran-2″-one] | 14.6 ± 0.3 µM | 3.7 | 14.6 ± 0.3 µM | 53.7 ± 0.9 µM | – | – |
| COc1ccc(C23CC(C4=C(CC(c5ccccc5)OC4=O)O2)c2cc([N+](=O)[O-])ccc2O3)cc1OC (racemic) [(±)-65b, 2-(3′,4′-Dimethoxyphenyl)-6-nitrochromane-(4→3″, 2→O-4″)-4″-hydroxy-6″-phenyl-5″,6″-dihydro-2H-pyran-2″-one] | < 10 µM and 8.5 µM | >35.3 | 8.5 ± 0.4 µM | > 300 µM | – | – |
| COc1ccc([C@]23C[C@H](C4=C(C[C@@H](c5ccccc5)OC4=O)O2)c2ccccc2O3)cc1OC (racemic) [(±)-62a, 2-(3′,4′-Dimethoxyphenyl)-chromane-(4→3″, 2→O-4″)-4″-hydroxy-6″-phenyl-5″,6″-dihydro-2H-pyran-2″-one] | < 10 µM and 3.6 µM | 41.8 | 3.6 ± 0.3 µM | – | – | 150 ± 3.9 µM |
| COc1ccc(C2CC3=C(C(=O)O2)C2CC(c4ccc(OC)c(OC)c4)(O3)Oc3ccccc32)cc1 (racemic) [(±)-64b, 2-(3′,4′-Dimethoxyphenyl)-chromane-(4→3″, 2→O-4″)-4″-hydroxy-6″-(4‴-methoxyphenyl)-5″,6″-dihydro-2H-pyran-2″-one] | 96.7 ± 9 µM | >3.1 | 96.7 ± 9 µM | > 300 µM | – | – |
| O=c1oc2ccccc2c2c1C1CC(c3ccc(O)cc3)(Oc3ccccc31)O2 (racemic) [(±)-51] | 34.4 ± 0.8 µM | 0.9 | 34.4 ± 0.8 µM | 31.5 ± 3 µM | – | – |
| COc1ccc(C23CC(C4=C(CC(c5ccc(Cl)cc5)OC4=O)O2)c2cc(Cl)ccc2O3)cc1OC (racemic) [(±)-69b, 2-(3′,4′-Dimethoxyphenyl)-6-chlorochromane-(4→3″, 2→O-4″)-6″-(4‴-chlorophenyl)-4″-hydroxy-5″,6″-dihydro-2H-pyran-2″-one] | 14.2 ± 0.8 µM | 5.4 | 14.2 ± 0.8 µM | 77 ± 9.7 µM | – | – |
